# How the values were obtained:
# Test in all cases: MIC microbroth dilution
# Type in all cases: cell-based
# [1] = test system: A. baumannii GC 7685 TEM-1; conditions: Acinetobacter baumannii, GC7685TEM1, 18 h, read-out: Minimal Inhibitory Concentration
# Summary of the method: (§1)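 Broth microdilution per NCCLS M7-A5 in Mueller-Hinton II broth; plates incubated 18-22 hours at 35 C in ambient air. MIC read as lowest concentration preventing growth.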
# [2] = test system: E. cloacae PT 967 Inducible AmpC; conditions: Enterobacter cloacae, β-lactamase class C, MHBII, 35° C. 18 hr, read-out: Minimal Inhibitory Concentration
# Summary of the method: as §1
# [3] = test system: P. aeruginosa GC 1764 (AmpC); conditions: Pseudomonas aeruginosa, β-lactamase class C, MHBII, 35° C. 18 hr, read-out: Minimal Inhibitory Concentration
# Summary of the method: as §1
# [4] = test system: E. coli GC 2021 (TEM-10 + pl 6.3); conditions: Escherichia coli, 18 h, read-out: Minimal Inhibitory Concentration
# Summary of the method: as §1
# [5] = test system: S. typhimurium GC 4197 CTX-M-5; conditions: Salmonella enterica, β-lactamase class A (ESBL), MHBII, 35° C. 18 hr, read-out: Minimal Inhibitory Concentration
# Summary of the method: as §1
# [6] = test system: S. typhimurium GC 4198 SHV-1 CTX-M-5; conditions: Salmonella enterica, 18 h, read-out: Minimal Inhibitory Concentration
# Summary of the method: as §1
# K. pn GC 1830 (SHV-2) = conditions: Klebsiella pneumoniae, β-lactamase class A (ESBL), MHBII, 35° C. 18 hr, read-out: Minimal Inhibitory Concentration
# Summary of the method: as §1
# [7] = test system: S. maltophilia GC 1712(L1); conditions: Stenotrophomonas maltophilia, β-lactamase class B, MHBII, 35° C. 18 hr, read-out: Minimal Inhibitory Concentration
# Summary of the method: as §1
# [8] = test system: E. cloacae GC 1477 (AmpC); conditions: Enterobacter cloacae, β-lactamase class C, MHBII, 35° C. 18 hr, read-out: Minimal Inhibitory Concentration
# Summary of the method: as §1
# [9] = test system: S. marcescens GC 4132 (AmpC); conditions: Serratia marcescens, β-lactamase class C, MHBII, 35° C. 18 hr, read-out: Minimal Inhibitory Concentration
# Summary of the method: as §1
# [10] = test system: E. aerogenes GC 7039 TEM-4, Amp C inducable; conditions: Klebsiella aerogenes, β-lactamase class A (ESBL), MHBII, 35° C. 18 hr, read-out: Minimal Inhibitory Concentration
# Summary of the method: as §1
# [11] = test system: E. cloacae PT 1494 Inducible AmpC; conditions: Enterobacter cloacae, β-lactamase class C, MHBII, 35° C. 18 hr, read-out: Minimal Inhibitory Concentration
# Summary of the method: as §1
# [12] = test system: E. coli GC 2015 (TEM-10 + SHV-1); conditions: Escherichia coli, β-lactamase class A, A (ESBL), MHBII, 35° C. 18 hr, read-out: Minimal Inhibitory Concentration
# Summary of the method: as §1
# [13] = test system: E. coli GC 2017 (TEM-10 + pl 6.3; 8.1); conditions: Escherichia coli, β-lactamase class A (ESBL), MHBII, 35° C. 18 hr, read-out: Minimal Inhibitory Concentration
# Summary of the method: as §1
# [14] = test system: K. pneumoniae GC 2826 Act 1 + 3 additional; conditions: Klebsiella pneumoniae, β-lactamase class A, A (ESBL), C, MHBII, 35° C. 18 hr, read-out: Minimal Inhibitory Concentration
# Summary of the method: as §1
# [15] = test system: K. oxytoca GC 7627 TEM-1 K1 KPC-2; conditions: Klebsiella oxytoca, 18 h, read-out: Minimal Inhibitory Concentration
# Summary of the method: as §1
# E. coli GC 1995 (TEM-10) = conditions: Escherichia coli, β-lactamase class A (ESBL), MHBII, 35° C. 18 hr, read-out: Minimal Inhibitory Concentration
# Summary of the method: as §1
# [16] = test system: K. pneumoniae GC 7821 DHA 1; conditions: Klebsiella pneumoniae, GC7821DHA1, β-lactamase class C, MHBII, 35° C. 18 hr, read-out: Minimal Inhibitory Concentration
# Summary of the method: as §1
# [17] = test system: P. aeruginosa PT 8503 PTZ-R; conditions: Pseudomonas aeruginosa, PT8503PTZR; P. aeruginosa PT 8503, piperacillin-tazobactam-resistant; MHBII, 35° C. 18 hr; read-out: Minimal Inhibitory Concentration
# Summary of the method: as §1
# E. coli GC 2920 (IRT-2) = conditions: Escherichia coli, β-lactamase class A (IRT), MHBII, 35° C. 18 hr, read-out: Minimal Inhibitory Concentration
# Summary of the method: as §1
# E. coli ATCC 35218 TEM-1 = conditions: Escherichia coli, ATCC35218, 18 h, read-out: Minimal Inhibitory Concentration
# Summary of the method: as §1
# [18] = test system: S. marcescens GC 4145 Inducible AmpC; conditions: Serratia marcescens, β-lactamase class C, MHBII, 35° C. 18 hr, read-out: Minimal Inhibitory Concentration
# Summary of the method: as §1
# [19] = test system: K. pn GC 6657 (TEM-1 + SHV-27); conditions: Klebsiella pneumoniae, β-lactamase class A, A (ESBL), MHBII, 35° C. 18 hr, read-out: Minimal Inhibitory Concentration
# Summary of the method: as §1
# [20] = test system: K. pn GC 3104 (MIR-1 + TEM-1); conditions: Klebsiella pneumoniae, β-lactamase class A, C, MHBII, 35° C. 18 hr, read-out: Minimal Inhibitory Concentration
# Summary of the method: as §1
# E. coli GC 2009 (TEM-10) = conditions: Escherichia coli, 18 h, read-out: Minimal Inhibitory Concentration
# Summary of the method: as §1
smiles,measurement,setting,value
CO/N=C(\C(=O)N[C@@H]1C(=O)N2C(C(=O)[O-])=C(C[N+]3(C)CCCC3)CS[C@H]12)c1csc(N)n1 [Cefepime],MIC,[1],> 16 µg/mL
same,MIC,[2],0.12 µg/mL
same,MIC,[3],8 µg/mL
same,MIC,[4],8 µg/mL
same,MIC,[5],> 16 µg/mL
same,MIC,[6],> 16 µg/mL
same,MIC,K. pn GC 1830 (SHV-2),2 µg/mL
same,MIC,[7],> 16 µg/mL
same,MIC,[8],4 µg/mL
same,MIC,[9],0.5 µg/mL
same,MIC,[10],> 16 µg/mL
same,MIC,[11],0.25 µg/mL
same,MIC,[12],> 16 µg/mL
same,MIC,[13],16 µg/mL
same,MIC,[14],8 µg/mL
same,MIC,[15],> 16 µg/mL
same,MIC,E. coli GC 1995 (TEM-10),> 16 µg/mL
same,MIC,[16],0.06 µg/mL
same,MIC,[17],8 µg/mL
same,MIC,E. coli GC 2920 (IRT-2),0.06 µg/mL
same,MIC,E. coli ATCC 35218 TEM-1,0.03 µg/mL
same,MIC,[18],1 µg/mL
same,MIC,[19],0.12 µg/mL
same,MIC,[20],1 µg/mL
same,MIC,E. coli GC 2009 (TEM-10),> 16 µg/mL
